Experimental data as given in publication PMC8219695 (Nature Communications, 2021).
Several values for one entry are separate records, joined by “and”; a condition that tells them apart may be missing. Identical values can stand only once.

Legend:
rKOR = target: T1, rKOR (Rattus norvegicus, UniProt P34975); test: CAMYEL BRET cAMP agonist assay at rKOR; assay type: cell-based; conditions: individual replicates, Supplementary Figure 8B source data
T1 construct: expressed in transfected cells

hKOR = hKOR (Homo sapiens, UniProt P41145); test: CAMYEL BRET cAMP agonist assay at hKOR; assay type: cell-based; conditions: individual replicates, Supplementary Figure 8A source data
mDOR = target: T2, mDOR (Mus musculus, UniProt P32300); test: CAMYEL BRET cAMP agonist assay at mDOR; assay type: cell-based; conditions: for Agonist activity of 7OH analogs at mDOR: single replicate values, Supplementary Figure 7B
T2 construct: expressed in transfected cells

mKOR = target: T3, mKOR (Mus musculus, UniProt P33534); test: [125I]BNtxA radioligand competition binding, mouse KOR; conditions: mean ± SEM, n = 3; [125I]BNtxA; read-out: Ki ± SEM mKOR
T3 construct: expressed in transfected cells; membranes

mMOR = target: T4, mMOR (Mus musculus, UniProt P42866); test: CAMYEL BRET cAMP agonist assay at mMOR; assay type: cell-based; conditions: mMOR, single replicates, source data Fig 6b, listed as C11-Cl-7OH (23)
T4 construct: signal peptide (heterologous, not specified) (N); expressed in transfected cells; pcDNA3.1(+) construct made in house

CC[C@@H]1CN2CC[C@@]3(O)C(=Nc4cc(Cl)cc(OC)c43)[C@@H]2C[C@@H]1/C(=C\OC)C(=O)OC [11-Cl-7OH (23), 11-Cl-7OH]
Agonist activity of 7OH analogs at rKOR (rKOR; Log [drug](M) -5): 7.778 and 10.9917 and 16.9019 and -6.188 and -1.8256 and 8.442 and 6.4374 and 16.0399 and 7.566 | Agonist activity of 7OH analogs at rKOR (rKOR; Log [drug](M) -6): 8.066 and 4.412 and -3.244 and 6.747 and -4.426 and -2.321 and 10.6533 and 7.813 and 3.403 | Agonist activity of 7OH analogs at rKOR (rKOR; Log [drug](M) -7): 11.5045 and -0.8261 and -10.6783 and 7.768 and -4.174 and 5.42 and 2.7074 and 2.952 and 8.478 | Agonist activity of 7OH analogs at rKOR (rKOR; Log [drug](M) -8): 0.508 and -0.7332 and 4.656 and 8.713 and 2.1745 and 4.589 and 10.047 and 0.1108 and 9.912 | Agonist activity of 7OH analogs at rKOR (rKOR; Log [drug](M) -9): 6.738 and 3.9698 and 11.9053 and 20.8557 and 20.3344 and 22.4492 and 3.132 and -0.673 and 0.03935 | Agonist activity of 7OH analogs at rKOR (rKOR; Log [drug](M) -10): 7.8399 and 7.154 and 27.1145 and 5.225 and 8.778 and 7.65 and 0.6993 and -2.781 and 2.082 | Agonist activity of 7OH analogs at rKOR (rKOR; Log [drug](M) -11): 20.1355 and 7.2112 and 5.419 and 15.9158 and 14.9773 and 3.289 and 5.031 and 2.5469 and 3.562 | Agonist activity of 7OH analogs at rKOR (rKOR; Log [drug](M) -13): 2.6438 and 19.3085 and 15.1998 and 15.6888 and 12.292 and 1.7 and 4.489 and 13.3107 and 4.029 | Agonist activity of 7OH analogs at hKOR (hKOR; Log [drug](M) -5): 9.026 and -5.895 and 4.248 and 11.9704 and 8.484 and 2.501 and -3.893 and 6.434 and -2.541 | Agonist activity of 7OH analogs at hKOR (hKOR; Log [drug](M) -6): -2.414 and -2.835 and -8.98 and 12.2163 and 1.484 and -5.782 and -0.574 and -6.895 and -9.704 | Agonist activity of 7OH analogs at hKOR (hKOR; Log [drug](M) -7): -11.1771 and -3.626 and -0.5883 and -1.763 and -7.04 and -2.623 and -4.522 and -13.931 and 0.01935 | Agonist activity of 7OH analogs at hKOR (hKOR; Log [drug](M) -8): 2.99 and -4.136 and 1.141 and -3.765 and -7.282 and -9.586 and -2.533 and -2.303 and 3.7063 | Agonist activity of 7OH analogs at hKOR (hKOR; Log [drug](M) -9): -6.592 and -11.4451 and 3.708 and 3.417 and -6.737 and -11.3529 and 17.5943 and 11.6069 and 9.781 | Agonist activity of 7OH analogs at hKOR (hKOR; Log [drug](M) -10): -2.387 and -3.9069 and 3.049 and -10.4557 and -1.189 and 2.17 and 4.733 and 0.5961 and 8.633 | Agonist activity of 7OH analogs at hKOR (hKOR; Log [drug](M) -11): 8.282 and -7.987 and 6.107 and 1.524 and -1.1871 and -6.8877 and 2.73 and 5.876 and 10.03 | Agonist activity of 7OH analogs at hKOR (hKOR; Log [drug](M) -13): 4.46 and -4.721 and 0.2615 and 1.311 and -2.987 and 1.677 and 6.874 and 5.681 and 9.762 | Agonist activity of 7OH analogs at mDOR (mDOR; Log[drug] (M) -5): 26.1167 and 29.2367 and 36.3699 and 32.2405 and 24.7678 and 31.8502 and 20.8066 and 14.4196 | Agonist activity of 7OH analogs at mDOR (mDOR; Log[drug] (M) -6): 24.5815 and 25.9676 and 37.4358 and 15.5242 and 17.7522 and 18.5933 and 15.1392 and 2.291 and 7.306 | Agonist activity of 7OH analogs at mDOR (mDOR; Log[drug] (M) -7): 31.8669 and 29.4684 and 27.3279 and 35.1303 and 15.7738 and 14.2288 and -2.321 and 1.192 and 1.129 | Agonist activity of 7OH analogs at mDOR (mDOR; Log[drug] (M) -8): 24.8631 and 32.1589 and 37.1926 and 12.9562 and 15.2093 and 7.166 and 10.5442 and -9.446 and 11.0136 | Agonist activity of 7OH analogs at mDOR (mDOR; Log[drug] (M) -9): 33.463 and 29.5442 and 24.9953 and 13.5309 and 13.5578 and 8.893 and 29.4233 | Agonist activity of 7OH analogs at mDOR (mDOR; Log[drug] (M) -10): 24.7821 and 18.2952 and 15.7891 and -5.277 and 4.222 and 6.7221 and 13.4439 and 1.454 and 8.443 | Agonist activity of 7OH analogs at mDOR (mDOR; Log[drug] (M) -11): 28.0105 and 19.9828 and 19.4476 and 11.3847 and -1.66 and -5.157 and 5.226 and 0.03212 and 8.89 | Agonist activity of 7OH analogs at mDOR (mDOR; Log[drug] (M) -13): -1.931 and 4.676 and 0.1543 and -4.31 and 4.156 and 0.5113 and 7.987 and 3.883 | Emax (mDOR; mDOR cAMP BRET, positive control DPDPE): very low efficacy | Ki (mKOR): 30.7 ± 11.4 nM | cAMP % (mMOR; Log[drug] (M) -5): 6.435% and 6.384% and 16.5545% and 12.4027% and 11.5958% and 9.171% and 11.6377% and 17.8045% and 15.1324% | cAMP % (mMOR; Log[drug] (M) -6): 18.6614% and 4.689% and 11.9914% and 8.341% and 7.121% and 7.194% and 11.7839% and 2.54% and 3.967% | cAMP % (mMOR; Log[drug] (M) -7): 11.7629% and -2.4507% and 10.3244% and 12.5872% and 11.439% and 4.6796% and 1.65% and 1.082% and 0.9258% | cAMP % (mMOR; Log[drug] (M) -8): -5.129% and 6.21% and -1.081% and 7.275% and 2.298% and 9.574% and 9.25% and -4.751% and 0.6222% | cAMP % (mMOR; Log[drug] (M) -9): 2.051% and -8.733% and 10.4525% and -1.843% and 3.825% and 12.7464% and 9.611% and 1.736% and 14.7967% | cAMP % (mMOR; Log[drug] (M) -10): -1.957% and 12.894% and -4.791% and 0.07219% and 0.3304% and -0.4025% and -1.324% and -2.101% and 5.511% | cAMP % (mMOR; Log[drug] (M) -11): 22.2971% and -9.038% and -0.05376% and 20.8701% and 7.205% and 16.4135% and 3.836% and -1.905% and 3.566%
